Experimental findings from US8445476B2, “Carbacephem β-lactam antibiotics” (Achaogen, Inc., priority 2007, dated 2013) are described below.

What all share (assay type): cell-based
Test [1] concerns S. aureus ASAU1029 (CA-MRSA, USA300). Put plainly: MIC assay, S. aureus ASAU1029. Conditions: Staphylococcus aureus, read-out: MIC ASAU 1029. Here is the method:
(§1) The in vitro MIC for bacterial isolates may be obtained in the following manner: a test compound is incorporated into a series of two-fold dilutions in cation adjusted Mueller-Hinton broth (CAMHB). Different bacterial strains diluted to provide a uniform inoculum are added to the CAMHB containing test compounds. A well without test compound is included for each strain as a growth control. […] The procedures used in these experiments are generally those standardized by the Clinical and Laboratory Standards Institute (CLSI), as set forth in the CLSI publication entitled “M7-A7. Methods for dilution antimicrobial susceptibility tests for bacteria that grow aerobically; approved standard-seventh edition.” (2006), which is incorporated by reference as if fully set forth herein. The following exemplifies such a procedure although it is to be understood that modifications of the procedure may be implemented as required.
(§2) Two-fold dilutions of the test compounds are prepared in CAMHB at 2× the concentration range to be tested if the compounds are soluble in aqueous solution. Alternately, dimethylsulfoxide (DMSO) is used to prepare two-fold dilutions at 10× the concentration range to be tested. Reference drugs such as cefotaxime, vancomycin or imipenem are used as positive controls. A few isolated colonies are retrieved from a pure culture prepared on an agar plate and suspended in PBS until the turbidity of the suspension matches a 0.5 McFarland standard which is equal to approximately 10^8 sCFU/mL. This solution is further diluted in CAMHB to 10^6CFU/mL if compounds are diluted in CAMHB and 5×10^5 CFU/mL if compounds are diluted in DMSO. The CAMHB plates containing the compound dilutions are combined in equal volumes with the higher density inoculum, or 10 μL of the DMSO dilutions are added to the lower density inoculum. When S. aureus is the organism being tested and the compound is oxacillin, a beta-lactam or a carbacephem compound of the present invention, 2% NaCl is added to the growth media. The plates are then incubated for 16-20 hours at 35° C. The plates are then observed to determine which concentration of the test compound is the MIC.

The test system of test [2] is S. aureus ASAU1033 (MRSA, CIP, ERY, CLIN, TET, GEN resistant). Description: MIC assay, S. aureus ASAU1033. The settings on record: Staphylococcus aureus, read-out: MIC ASAU 1033. As to the method: as §1, §2
Test [3] concerns S. aureus ASAU1028 (CA-MRSA, USA400). Description: MIC assay, S. aureus ASAU1028. The settings on record: Staphylococcus aureus, read-out: MIC ASAU 1028. Here is the method: as §1, §2
The test system of test [4] is S. aureus ASAU001 (Susceptible Organism ATCC 29213). Description: MIC assay, S. aureus ASAU001. Conditions: Staphylococcus aureus, ATCC29213, read-out: MIC ASAU 001. Here is the method: as §1, §2
In test [5] the test system is S. aureus ASAU1043 (MRSA, CIP, ERY, CLI, GEN resistant). Description: MIC assay, S. aureus ASAU1043. The settings on record: Staphylococcus aureus, read-out: MIC ASAU 1043. As to the method:
as §1, §2

Values after ≈ are worked out from the molar mass of the structure shown.

For `Nc1nc(/C(=N/O)C(=O)N[C@@H]2C(=O)N3C(C(=O)O)=C(Sc4cccnc4CSC4CCNC4)CC[C@H]23)c(Cl)s1` (stereo partly drawn) [30/1, (6R,7S,Z)-7-(2-(2-amino-5-chlorothiazol-4-yl)-2-(hydroxyimino)acetamido)-8-oxo-3-(2-((pyrrolidin-3-ylthio)methyl)pyridin-3-ylthio)-1-aza-bicyclo[4.2.0]oct-2-ene-2-carboxylic acid], the MIC was ≤ 1 µg/mL in test [1]; 1 to 8 µg/mL (≈ 1.64 to 13.1 µM) in test [2]; ≤ 1 µg/mL in test [3]; ≤ 1 µg/mL in test [4]; 1 to 8 µg/mL (≈ 1.64 to 13.1 µM) in test [5].

`CO/N=C(\C(=O)N[C@@H]1C(=O)N2C(C(=O)O)=C(Sc3nc(C)c(C)s3)CC[C@H]12)c1nc(N)sc1Cl` [38/1, (6R,7S,Z)-7-(2-(2-amino-5-chlorothiazol-4-yl)-2-(methoxyimino)acetamido)-3-(4,5-dimethylthiazol-2-ylthio)-8-oxo-1-aza-bicyclo[4.2.0]oct-2-ene-2-carboxylic Acid]: the MIC in test [1] was ≤ 1 µg/mL; in test [2], 1 to 8 µg/mL (≈ 1.84 to 14.7 µM); in test [3], ≤ 1 µg/mL; in test [4], ≤ 1 µg/mL; in test [5], > 8 µg/mL.

For `NCCc1ncccc1SC1=C(C(=O)O)N2C(=O)[C@@H](NC(=O)/C(=N\O)c3nc(N)sc3Cl)[C@H]2CC1` [32/1, (6R,7S,Z)-7-(2-(2-amino-5-chlorothiazol-4-yl)-2-(hydroxyimino)acetamido)-3-(2-(2-aminoethyl)pyridin-3-ylthio)-8-oxo-1-aza-bicyclo[4.2.0]oct-2-ene-2-carboxylic Acid], the MIC is > 8 µg/mL in test [1], 1 to 8 µg/mL (≈ 1.86 to 14.9 µM) in test [2], ≤ 1 µg/mL in test [4] and > 8 µg/mL in test [5].

`CO/N=C(\C(=O)N[C@@H]1C(=O)N2C(C(=O)O)=C(Sc3ccncc3CSCCN)CC[C@H]12)c1nsc(N)n1` [52/1, (6R,7S,Z)-7-(2-(5-amino-1,2,4-thiadiazol-3-yl)-2-(methoxyimino)acetamido)-3-(3-((2-aminoethylthio)methyl)pyridin-4-ylthio)-8-oxo-1-aza-bicyclo[4.2.0]oct-2-ene-2-carboxylic acid]: the MIC is 1 to 8 µg/mL (≈ 1.77 to 14.2 µM) in test [1]; 1 to 8 µg/mL (≈ 1.77 to 14.2 µM) in test [2]; 1 to 8 µg/mL (≈ 1.77 to 14.2 µM) in test [3]; ≤ 1 µg/mL in test [4]; > 8 µg/mL in test [5].

In the case of `CO/N=C(\C(=O)N[C@@H]1C(=O)N2C(C(=O)O)=C(Sc3nnc(N)s3)CC[C@H]12)c1nsc(N)n1` [49/1, (6R,7S,Z)-7-(2-(5-amino-1,2,4-thiadiazol-3-yl)-2-(methoxyimino)acetamido)-3-(5-amino-1,3,4-thiadiazol-2-ylthio)-8-oxo-1-aza-bicyclo[4.2.0]oct-2-ene-2-carboxylic Acid], the MIC was 1 to 8 µg/mL (≈ 2.01 to 16.1 µM) in test [1]; > 8 µg/mL in test [2]; > 8 µg/mL in test [3]; ≤ 1 µg/mL in test [4]; > 8 µg/mL in test [5].

Turning to `Nc1nc(/C(=N/O)C(=O)N[C@@H]2C(=O)N3C(C(=O)O)=C(Sc4cccnc4)CC[C@H]23)c(Cl)s1` [34/1, (6R,7S,Z)-7-(2-(2-amino-5-chlorothiazol-4-yl)-2-(hydroxyimino)acetamido)-8-oxo-3-(pyridin-3-ylthio)-1-aza-bicyclo[4.2.0]oct-2-ene-2-carboxylic Acid], the MIC in test [1] was > 8 µg/mL; in test [2], > 8 µg/mL; in test [3], 1 to 8 µg/mL (≈ 2.02 to 16.2 µM); in test [4], ≤ 1 µg/mL; in test [5], > 8 µg/mL.

As to `CNCCSCc1ncccc1SC1=C(C(=O)O)N2C(=O)[C@@H](NC(=O)/C(=N\O)c3nc(N)sc3Cl)[C@H]2CC1` [29/1, (6R,7S,Z)-7-(2-(2-amino-5-chlorothiazol-4-yl)-2-(hydroxyimino)acetamido)-3-(2-((2-(methylamino)ethylthio)methyl)pyridin-3-ylthio)-8-oxo-1-aza-bicyclo[4.2.0]oct-2-ene-2-carboxylic acid], the MIC in test [1] was ≤ 1 µg/mL; in test [2] it was 1 to 8 µg/mL (≈ 1.67 to 13.4 µM); in test [3] it was ≤ 1 µg/mL; in test [4], ≤ 1 µg/mL; in test [5], 1 to 8 µg/mL (≈ 1.67 to 13.4 µM).

Take `CO/N=C(\C(=O)N[C@@H]1C(=O)N2C(C(=O)O)=C(Sc3cccnc3N)CC[C@H]12)c1nc(N)sc1Cl` [40/1, (6R,7S)-7-(2-(2-amino-5-chlorothiazol-4-yl)-2-(methoxyimino)acetamido)-3-(2-aminopyridin-3-ylthio)-8-oxo-1-aza-bicyclo[4.2.0]oct-2-ene-2-carboxylic acid]: the minimum inhibitory concentration (MIC) is > 8 µg/mL in test [1]; > 8 µg/mL in test [2]; 1 to 8 µg/mL (≈ 1.91 to 15.3 µM) in test [3]; ≤ 1 µg/mL in test [4]; > 8 µg/mL in test [5].

For the compound `Nc1nc(/C(=N/O)C(=O)N[C@@H]2C(=O)N3C(C(=O)O)=C(Sc4cccnc4N)CC[C@H]23)c(Cl)s1` [28/1, (6R,7S,Z)-7-(2-(2-amino-5-chlorothiazol-4-yl)-2-(hydroxyimino)acetamido)-3-(2-aminopyridin-3-ylthio)-8-oxo-1-aza-bicyclo[4.2.0]oct-2-ene-2-carboxylic Acid], the MIC is 1 to 8 µg/mL (≈ 1.96 to 15.7 µM) in test [1]; > 8 µg/mL in test [2]; ≤ 1 µg/mL in test [3]; ≤ 1 µg/mL in test [4]; > 8 µg/mL in test [5].

Regarding `CO/N=C(\C(=O)N[C@@H]1C(=O)N2C(C(=O)O)=C(Sc3ccncc3)CC[C@H]12)c1nc(N)sc1Cl` [37/1, (6R,7S,Z)-7-(2-(2-amino-5-chlorothiazol-4-yl)-2-(methoxyimino)acetamido)-8-oxo-3-(pyridin-4-ylthio)-1-aza-bicyclo[4.2.0]oct-2-ene-2-carboxylic Acid], the MIC in test [1] is > 8 µg/mL; in test [2] it was 1 to 8 µg/mL (≈ 1.96 to 15.7 µM); in test [3], 1 to 8 µg/mL (≈ 1.96 to 15.7 µM); in test [4], ≤ 1 µg/mL; in test [5] it was > 8 µg/mL.

`CO/N=C(\C(=O)N[C@@H]1C(=O)N2C(C(=O)O)=C(Sc3cccnc3CCN)CC[C@H]12)c1nc(N)sc1Cl` [39/1, (6R,7S,Z)-7-(2-(2-amino-5-chlorothiazol-4-yl)-2-(methoxyimino)acetamido)-3-(2-(2-aminoethyl)pyridin-3-ylthio)-8-oxo-1-aza-bicyclo[4.2.0]oct-2-ene-2-carboxylic Acid]: the MIC in test [1] is 1 to 8 µg/mL (≈ 1.81 to 14.5 µM); in test [2], > 8 µg/mL; in test [3], 1 to 8 µg/mL (≈ 1.81 to 14.5 µM); in test [4], ≤ 1 µg/mL; in test [5], > 8 µg/mL.

Take `CO/N=C(\C(=O)N[C@@H]1C(=O)N2C(C(=O)O)=C(Sc3cccnc3CN)CC[C@H]12)c1nc(N)sc1Cl` [43/1, (6R,7S,Z)-7-(2-(2-amino-5-chlorothiazol-4-yl)-2-(methoxyimino)acetamido)-3-(2-(aminomethyl)pyridin-3-ylthio)-8-oxo-1-aza-bicyclo[4.2.0]oct-2-ene-2-carboxylic acid]: the MIC was > 8 µg/mL in test [1]; > 8 µg/mL in test [2]; > 8 µg/mL in test [3]; ≤ 1 µg/mL in test [4]; > 8 µg/mL in test [5].

For `CO/N=C(\C(=O)N[C@@H]1C(=O)N2C(C(=O)O)=C(Sc3cccnc3CSCCN)CC[C@H]12)c1nsc(N)n1` [51/1, (6R,7S,Z)-7-(2-(5-amino-1,2,4-thiadiazol-3-yl)-2-(methoxyimino)acetamido)-3-(2-((2-aminoethylthio)methyl)pyridin-3-ylthio)-8-oxo-1-aza-bicyclo[4.2.0]oct-2-ene-2-carboxylic Acid], the minimum inhibitory concentration (MIC) in test [1] was 1 to 8 µg/mL (≈ 1.77 to 14.2 µM); in test [2], > 8 µg/mL; in test [3], 1 to 8 µg/mL (≈ 1.77 to 14.2 µM); in test [4], ≤ 1 µg/mL; in test [5], > 8 µg/mL.

As for `Nc1nc(/C(=N/O)C(=O)N[C@@H]2C(=O)N3C(C(=O)O)=C(Sc4nncs4)CC[C@H]23)ns1` [46/1, (6R,7S,Z)-3-(1,3,4-thiadiazol-2-ylthio)-7-(2-(5-amino-1,2,4-thiadiazol-3-yl)-2-(hydroxyimino)acetamido)-8-oxo-1-aza-bicyclo[4.2.0]oct-2-ene-2-carboxylic Acid], the MIC in test [1] was ≤ 1 µg/mL; in test [2] it was > 8 µg/mL; in test [3], 1 to 8 µg/mL (≈ 2.13 to 17.1 µM); in test [4], ≤ 1 µg/mL; in test [5], > 8 µg/mL.

On to `CNCCSCc1ncccc1SC1=C(C(=O)O)N2C(=O)[C@@H](NC(=O)/C(=N\OC)c3nc(N)sc3Cl)[C@H]2CC1` [41/1, (6R,7S,Z)-7-(2-(2-amino-5-chlorothiazol-4-yl)-2-(methoxyimino)acetamido)-3-(2-((2-(methylamino)ethylthio)methyl)pyridin-3-ylthio)-8-oxo-1-aza-bicyclo[4.2.0]oct-2-ene-2-carboxylic Acid], for which the MIC in test [2] is > 8 µg/mL; in test [3], 1 to 8 µg/mL (≈ 1.63 to 13.1 µM); in test [4] it was ≤ 1 µg/mL; in test [5], > 8 µg/mL.
